Laboratory results from ChEMBL document CHEMBL6177939, “The role of silicon in drug discovery: a review” (RSC Med Chem, 2024).
≈ marks a conversion by molar mass, not a printed value.

Columns and labels:
[1] = target: Hydroxycarboxylic acid receptor 2 (Rattus norvegicus, UniProt Q80Z39); assay: Agonist activity at rat GPR109A transfected in T-REX-CHO cells by cAMP assay; assay type: cell-based
[2] = Agonist activity at rat GPR81 transfected in T-REX-CHO cells by cAMP assay; assay type: cell-based
MG-22A [3] = assay: Cytotoxicity against mouse MG-22A cells assessed as reduction in cell growth measured for 72 hrs by crystal violet staining based analysis; assay type: functional
HT-1080 [4] = assay: Cytotoxicity against human HT-1080 cells assessed as reduction in cell growth measured for 72 hrs by crystal violet staining based analysis; assay type: functional; settings: HT-1080, 72 h
MG-22A [5] = assay: Cytotoxicity against mouse MG-22A cells assessed as reduction in cell growth by measuring lethal concentration for 72 hrs by MTT assay; assay type: functional
HT-1080 [6] = assay: Cytotoxicity against human HT-1080 cells assessed as reduction in cell growth by measuring lethal concentration for 72 hrs by MTT assay; assay type: functional
[7] = target: Sigma non-opioid intracellular receptor 1 (Cavia porcellus, UniProt Q60492); assay: Binding affinity to guinea pig sigma 1 receptor assessed as inhibition constant
[8] = system: Human immunodeficiency virus 2; assay: Antiviral activity against HIV-2 ROD infected in human MT-4 cells assessed as reduction in virus-induced cytopathic effect incubated for 5 days by spectrophotometric based MTT assay; assay type: functional, organism-based; settings: Human immunodeficiency virus 2, ROD, MT4, 120 h
Salmonella typhimurium = assay: Antibacterial activity against Salmonella enterica subsp. enterica serovar Typhimurium PTCC 1609 assessed as reduction in cell growth incubated for 24 hrs by Mueller-Hinton Broth micro dilution method; assay type: functional
Staphylococcus aureus [9] = assay: Antibacterial activity against Staphylococcus aureus PTCC 1112 assessed as reduction in cell growth incubated for 24 hrs by Mueller-Hinton Broth micro dilution method; assay type: functional
Escherichia coli [10] = assay: Antibacterial activity against Escherichia coli PTCC 1330 assessed as reduction in cell growth incubated for 24 hrs by Mueller-Hinton Broth micro dilution method; assay type: functional
Pseudomonas aeruginosa = assay: Antibacterial activity against Pseudomonas aeruginosa PTCC 1074 assessed as reduction in cell growth incubated for 24 hrs by Mueller-Hinton Broth micro dilution method; assay type: functional
Escherichia coli [11] = assay: Antibacterial activity against Escherichia coli assessed as reduction in bacterial growth incubated for 12 hrs by broth micr-dilution method; assay type: functional
Staphylococcus aureus [12] = assay: Antibacterial activity against Staphylococcus aureus assessed as reduction in bacterial growth incubated for 12 hrs by broth micr-dilution method; assay type: functional
Vibrio cholerae = assay: Antibacterial activity against Vibrio cholerae assessed as inhibition of bacterial growth; assay type: functional
Bacillus subtilis = assay: Antibacterial activity against Bacillus subtilis assessed as reduction in bacterial growth incubated for 12 hrs by broth micr-dilution method; assay type: functional
[13] = system: Panel NCI-60 (60 carcinoma cell lines); assay: Cytotoxicity against human Panel NCI-60 (60 carcinoma cell lines) assessed as reduction in cell growth incubated for 72 hrs by CCK-8 assay; assay type: functional, cell-based
Rhizoctonia solani = assay: Antifungal activity against Rhizoctonia solani assessed as inhibition of fungal growth at 1 microg/ml relative to control; assay type: functional
HCT-116 = assay: Antiproliferative activity against human HCT-116 cells assessed as reduction in cell viability incubated for 72 hrs by MTT assay; assay type: functional, cell-based; settings: HCT-116, 72 h

Sequence of Sigma non-opioid intracellular receptor 1 (Q60492 whole entry): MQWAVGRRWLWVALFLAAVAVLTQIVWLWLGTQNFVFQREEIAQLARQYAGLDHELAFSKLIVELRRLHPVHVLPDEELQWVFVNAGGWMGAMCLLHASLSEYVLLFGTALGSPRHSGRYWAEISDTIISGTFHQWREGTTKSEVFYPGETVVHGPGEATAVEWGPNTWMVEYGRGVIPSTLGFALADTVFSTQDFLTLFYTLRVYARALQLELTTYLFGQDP
Sequence of Hydroxycarboxylic acid receptor 2 (Q80Z39 whole entry): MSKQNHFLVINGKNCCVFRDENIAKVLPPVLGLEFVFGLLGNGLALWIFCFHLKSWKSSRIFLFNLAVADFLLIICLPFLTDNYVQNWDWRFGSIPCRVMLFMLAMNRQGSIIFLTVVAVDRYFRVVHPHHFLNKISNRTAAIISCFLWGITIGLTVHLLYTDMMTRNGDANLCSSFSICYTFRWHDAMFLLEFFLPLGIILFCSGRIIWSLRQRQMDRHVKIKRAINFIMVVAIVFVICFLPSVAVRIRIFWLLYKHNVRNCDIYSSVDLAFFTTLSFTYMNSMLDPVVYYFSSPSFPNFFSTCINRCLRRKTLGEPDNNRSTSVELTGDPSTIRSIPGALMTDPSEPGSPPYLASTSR

Compound CCOc1cc(Cl)c(C(=O)NC(=O)Nc2nc3c(s2)C[Si](c2ccccc2)(c2ccc(OC)cc2)CC3)cc1-n1cccn1 (centres undefined) has an EC50 [1] of 470 nM and an EC50 [2] of 210 nM.

CC[Si](CC)(CC)c1ccc([Si](C)(CCCN2CCN(C)CC2)c2ccc([Si](CC)(CC)CC)o2)o1 showed an IC50 (MG-22A [3]) of 3 µg/mL (≈ 5.48 µM) and an IC50 (HT-1080 [4]) of 3 µg/mL (≈ 5.48 µM).

CC[Si](C)(CC)OCC[N+]1(C)CCc2ccccc2C1.[I-] (centres undefined) gave an LC50 (MG-22A [5]) of 2 µg/mL and an LC50 (HT-1080 [6]) of less than 1 µg/mL.

With CCOc1cc(Cl)c(C(=O)NC(=O)Nc2nc3c(s2)C[Si](c2ccccc2)(c2ccccc2)CC3)cc1N1CCOCC1 the EC50 [1] was 1200 nM and the EC50 [2] was 1000 nM.

Compound c1ccc(CCN2CC[Si]3(CCCc4ccccc43)CC2)cc1 has a Ki [7] of 300 nM.

With CC(C)(C)[Si](C)(C)OC[C@H]1O[C@@H](n2ccc(=O)[nH]c2=O)[C@H](O[Si](C)(C)C(C)(C)C)[C@]12OS(=O)(=O)C=C2N the EC50 [8] was 0.114 µg/mL (≈ 0.198 µM).

With CCN(CC)CCC[Si](C)(c1ccc([Si](CC)(CC)CC)o1)c1ccc([Si](CC)(CC)CC)o1 the IC50 (MG-22A [3]) was 3 µg/mL (≈ 5.77 µM) and the IC50 (HT-1080 [4]) was 3 µg/mL (≈ 5.77 µM).

For CCCC[Si](CC)(CCCC)OCC[N+]1(C)CCc2ccccc2C1.[I-] (centres undefined), the LC50 (MG-22A [5]) was 2 µg/mL and the LC50 (HT-1080 [6]) was less than 1 µg/mL.

CCCCSc1nnn(CCCCC(=S)C(S)([Si](C)(C)C)[Si](C)(C)C)n1 gave an MIC (Salmonella typhimurium) of 3.91 µg/mL (≈ 8.71 µM), an MIC (Staphylococcus aureus [9]) of 3.91 µg/mL (≈ 8.71 µM) and an MIC (Escherichia coli [10]) of 3.91 µg/mL (≈ 8.71 µM). It also gave an MIC (Pseudomonas aeruginosa) of 3.91 µg/mL (≈ 8.71 µM).

For CCC[Si]1(CCC)CCc2nc(NC(=O)NC(=O)c3cc(N4CCOCC4)c(OCC)cc3Cl)sc2C1, the EC50 [1] was 1200 nM and the EC50 [2] was 1000 nM.

With O=c1c(F)cn(Cc2cn(CCC[Si-]345OCC[N+]3(CCO4)CCO5)nn2)c(=O)n1Cc1cn(CCC[Si-]234OCC[N+]2(CCO3)CCO4)nn1 (centres undefined) the MIC50 (Escherichia coli [11]) was 0.18 µg/mL (≈ 0.249 µM), the MIC50 (Staphylococcus aureus [12]) was 0.18 µg/mL (≈ 0.249 µM) and the MIC50 (Vibrio cholerae) was 0.18 µg/mL (≈ 0.249 µM). It also gave an MIC50 (Bacillus subtilis) of 0.18 µg/mL (≈ 0.249 µM).

With CCCCCCCCCC[Si](C)(C)OCC[N+]1(C)CCc2ccccc2C1.[I-] (centres undefined) the LC50 (MG-22A [5]) was 1 µg/mL and the LC50 (HT-1080 [6]) was less than 1 µg/mL.

For CCCCCC[Si](C)(CCCCCC)OCC[N+]1(C)CCc2ccccc2C1.[I-] (centres undefined), the LC50 (MG-22A [5]) was 1 µg/mL and the LC50 (HT-1080 [6]) was less than 1 µg/mL.

COc1ccc(CN2CC[Si]3(CCCc4ccccc43)CC2)cc1 gave a Ki [7] of 300 nM.

CCCCCSc1nnn(CCCCC(=S)C(S)([Si](C)(C)C)[Si](C)(C)C)n1 showed an MIC (Salmonella typhimurium) of 3.91 µg/mL (≈ 8.45 µM), an MIC (Staphylococcus aureus [9]) of 3.91 µg/mL (≈ 8.45 µM) and an MIC (Escherichia coli [10]) of 3.91 µg/mL (≈ 8.45 µM). The MIC (Pseudomonas aeruginosa) was 3.91 µg/mL (≈ 8.45 µM).

CCN(CC)CCC[Si](C)(c1ccc([Si](C)(C)C)o1)c1ccc([Si](C)(C)C)o1 showed an IC50 (MG-22A [3]) of 3 µg/mL (≈ 6.88 µM) and an IC50 (HT-1080 [4]) of 3 µg/mL (≈ 6.88 µM).

Cc1cn([C@@H]2O[C@H](CO[Si](C)(C)C(C)(C)C)[C@@]3(OS(=O)(=O)C=C3N)[C@H]2O[Si](C)(C)C(C)(C)C)c(=O)[nH]c1=O showed an EC50 [8] of 0.034 µg/mL (≈ 0.0576 µM).

Compound CCCC[Si](C)(C)Oc1ccc(C(=O)N[C@@H](Cc2ccc(-c3ccccc3)cc2)C(=O)NC2CC(C)(C)NC(C)(C)C2)cc1 has an IC50 [13] of 1500 nM.

For Cn1cc(C(=O)C(C#N)c2ccc([Si](C)(C)C)cc2)c(C(F)F)n1 (centres undefined), the inhibition at 1 µg/mL (Rhizoctonia solani) was 91.2%.

With CC[Si](CC)(CC)c1ccc([Si](C)(CCCN2CCCCC2)c2ccc([Si](CC)(CC)CC)o2)o1 the IC50 (MG-22A [3]) was 3 µg/mL (≈ 5.64 µM) and the IC50 (HT-1080 [4]) was 3 µg/mL (≈ 5.64 µM).

With CC(C)(C)[Si](C)(C)OC1OC(=O)C(Br)=C1Br (centres undefined) the IC50 (HCT-116) was 1300 nM.

In the case of CCOc1cc(Cl)c(C(=O)NC(=O)Nc2nc3c(s2)CCCC3)cc1-n1cccn1, the EC50 [1] is reported as 250 nM and the EC50 [2] is reported as 18 nM.

O=c1c(Cl)cn(Cc2cn(CCC[Si-]345OCC[N+]3(CCO4)CCO5)nn2)c(=O)n1Cc1cn(CCC[Si-]234OCC[N+]2(CCO3)CCO4)nn1 (centres undefined) gave an MIC50 (Escherichia coli [11]) of 0.18 µg/mL (≈ 0.243 µM), an MIC50 (Staphylococcus aureus [12]) of 0.18 µg/mL (≈ 0.243 µM) and an MIC50 (Vibrio cholerae) of 0.18 µg/mL (≈ 0.243 µM). The MIC50 (Bacillus subtilis) was 0.18 µg/mL (≈ 0.243 µM).

For CC[Si](CC)(CC)OC1OC(=O)C(Br)=C1Br (centres undefined), the IC50 (HCT-116) was 1600 nM.

O=C1OC(O)C(Br)=C1Br (centres undefined) [MUCOBROMIC ACID] showed an IC50 (HCT-116) of 1300 nM.

Compound C[Si](C)(C)C(S)(C(=S)CCCCn1nnc(Sc2ccccc2)n1)[Si](C)(C)C has an MIC (Salmonella typhimurium) of 3.91 µg/mL (≈ 8.34 µM), an MIC (Staphylococcus aureus [9]) of 3.91 µg/mL (≈ 8.34 µM) and an MIC (Escherichia coli [10]) of 3.91 µg/mL (≈ 8.34 µM). For the same compound, the MIC (Pseudomonas aeruginosa) was 3.91 µg/mL (≈ 8.34 µM).

For CCCCCCCCCCC[Si](C)(C)OCC[N+]1(C)CCc2ccccc2C1.[I-] (centres undefined), the LC50 (MG-22A [5]) was 1 µg/mL and the LC50 (HT-1080 [6]) was less than 1 µg/mL.

Compound O=c1c(I)cn(Cc2cn(CCC[Si-]345OCC[N+]3(CCO4)CCO5)nn2)c(=O)n1Cc1cn(CCC[Si-]234OCC[N+]2(CCO3)CCO4)nn1 (centres undefined) has an MIC50 (Escherichia coli [11]) of 0.18 µg/mL (≈ 0.217 µM), an MIC50 (Staphylococcus aureus [12]) of 0.18 µg/mL (≈ 0.217 µM) and an MIC50 (Vibrio cholerae) of 0.18 µg/mL (≈ 0.217 µM). The MIC50 (Bacillus subtilis) was 0.18 µg/mL (≈ 0.217 µM).

With CC(C)=CCN1CC[Si]2(CCCc3ccccc32)CC1 the Ki [7] was 300 nM.

Work on C[Si](C)(C)C(S)(C(=S)CCCCn1nnc(SC(=O)c2ccccc2)n1)[Si](C)(C)C yielded an MIC (Salmonella typhimurium) of 3.91 µg/mL (≈ 7.87 µM), an MIC (Staphylococcus aureus [9]) of 3.91 µg/mL (≈ 7.87 µM) and an MIC (Escherichia coli [10]) of 3.91 µg/mL (≈ 7.87 µM). It also gave an MIC (Pseudomonas aeruginosa) of 3.91 µg/mL (≈ 7.87 µM).
